≈ marks a conversion by molar mass, not a printed value. Counter-ions that a name gives are not always drawn.
System: rat AC (rAC)
Experiment: not given
Conditions: cited from earlier work

SMILES	IC50 [nM]
CCCCCCNC(=O)n1cc(C(F)(F)F)c(=O)[nH]c1=O [Compound 1b]	12
CCCCCCNC(=O)n1cc(F)c(=O)[nH]c1=O [carmofur]	29
CCCCCCNC(=O)n1cc(F)c(=O)n(C(=O)OCC(C)C)c1=O [Compound 1c]	16
CCCCCCNC(=O)n1cc(Cl)c(=O)[nH]c1=O [Compound 1a]	67

Molecular target: T1, hAC (Homo sapiens, UniProt Q13510)
T1 sequence (Q13510 22-395): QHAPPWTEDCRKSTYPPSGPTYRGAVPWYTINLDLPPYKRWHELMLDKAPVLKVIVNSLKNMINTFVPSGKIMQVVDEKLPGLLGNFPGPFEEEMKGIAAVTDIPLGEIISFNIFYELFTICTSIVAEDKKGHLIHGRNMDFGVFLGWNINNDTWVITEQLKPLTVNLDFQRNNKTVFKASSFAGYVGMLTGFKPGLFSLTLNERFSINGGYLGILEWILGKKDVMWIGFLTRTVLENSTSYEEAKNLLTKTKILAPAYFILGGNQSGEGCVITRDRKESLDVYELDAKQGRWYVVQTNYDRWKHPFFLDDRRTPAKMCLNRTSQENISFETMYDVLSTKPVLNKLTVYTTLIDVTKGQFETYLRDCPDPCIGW
Experiment: Michaelis–Menten analysis of hAC
Assay type: biochemical
Design: expressed in transfected cells; lysosome-enriched lysate
Conditions: 12a 25 nM
Experimental: Assay conditions for the kinetic studies were the same as those described for the fluorogenic hAC assay. The enzyme-enriched lysate (2 μg) was incubated with the following concentrations of substrate Rbm14-12: 0.25, 0.5, 1, 2.5, 5, 10, 12.5, 15 μM. Compound 12a was used at a final concentration of 25 and 100 nM. Initial velocities (V0) were determined and automatically fitted to the Michaelis–Menten equation to obtain kinetic parameters (KM and Vmax). The graph is representative of two independent experiments, each performed in three technical replicates. Graphs and data analysis were performed using GraphPad Prism 5 software (GraphPad Software Inc., CA, USA).

hAC Vmax [M/h]	SMILES
18201	O=C(NCCCCc1ccccc1)n1cc(-c2ccccc2)oc1=O [Compound 12a, 2-Oxo-5-phenyl-N-(4-phenylbutyl)oxazole-3-carboxamide]

Same assay, conditions: 12a 100 nM

hAC Vmax [M/h]	SMILES
12016	O=C(NCCCCc1ccccc1)n1cc(-c2ccccc2)oc1=O [Compound 12a, 2-Oxo-5-phenyl-N-(4-phenylbutyl)oxazole-3-carboxamide]

Same assay, conditions: hAC-enriched lysates, in words

effect on Michaelis–Menten constant (KM)	effect on maximal catalytic velocity of AC (Vmax)	SMILES
without influencing	concentration-dependent reduction	O=C(NCCCCc1ccccc1)n1cc(-c2ccccc2)oc1=O [Compound 12a, 2-Oxo-5-phenyl-N-(4-phenylbutyl)oxazole-3-carboxamide]

System: hAC
Experiment: not given
Conditions: cited from earlier work

SMILES	IC50 [nM]
O=C(NCCCCc1ccccc1)n1cnc2ccccc21 [Compound 3a]	2.5
COc1nc2ccccc2n1C(=O)NCCCCc1ccccc1 [Compound 3b]	13.9
O=C(NCc1ccccc1)n1cnc2ccccc21 [Compound 3c]	22.5
O=C(NCCCCc1ccccc1)n1c(=O)oc2cc(Cl)ccc21 [Compound 4c]	33
CC(C)CNC(=O)n1c(=O)oc2cc(C3CCN(C)CC3)ccc21 [Compound 4d]	166
Cc1ccc(CNC(=O)n2cnc3ccccc32)cc1 [Compound 3d]	14.8
O=C(NCCCCc1ccccc1)n1c(=O)oc2ccccc21 [Compound 4a]	64
O=C(NCCCCc1ccccc1)n1c(=O)oc2cc(-c3ccc(F)cc3)ccc21 [Compound 4b]	79

System: not listed separately
Experiment: Aqueous kinetic solubility assay
Assay type: physicochemical
Conditions: PBS pH 7.4
Experimental: The aqueous kinetic solubility was determined from a 10 mM CH3CN stock solution of the test compound in PBS at pH 7.4. The study was performed by the incubation of an aliquot of 10 mM CH3CN stock solution in PBS (pH 7.4) at a target concentration of 250 μM. The incubation was carried out under shaking at 25 °C for 1 h, followed by centrifugation at 21 100 × g for 30 min. The supernatant was analyzed by UPLC/MS for the quantification of the dissolved compound (in μM) by UV at a specific wavelength (215 nm). […] The UPLC/MS analyses were performed on a Waters Acquity UPLC/MS system consisting of SQDMS equipped with an ESI interface and a PDA detector. The PDA range was 210–400 nm. ESI in positive mode was used in the mass scan range 100–650 Da. The analyses were run on an Acquity UPLC BEH C18 column (50 × 2.1 mm ID, particle size 1.7 μm) with a VanGuard BEH C18 pre-column (5 × 2.1 mm ID, particle size 1.7 μm), using 10 mM NH4OAc in H2O at pH 5 adjusted with AcOH (A) and 10 mM NH4OAc in CH3CN/H2O (95:5) at pH 5 (B) as the mobile phase. The values are the mean of at least two independent experiments performed in two technical replicates.

solubility at 1 h [µM]	SMILES
248 (≈ 88.6 µg/mL)	CN1CCC(c2cn(C(=O)NCCCCc3ccccc3)c(=O)o2)CC1 [Compound 12y, 5-(1-Methyl-4-piperidyl)-2-oxo-N-(4-phenylbutyl)oxazole-3-carboxamide]

Molecular target: T1, hAC
Experiment: Fluorogenic hAC assay (hAC-enriched HEK293 lysate)
Assay type: biochemical
Design: expressed in transfected cells; lysosome-enriched lysate
Conditions: concentrations tested 1 and 10 μM where stated
Text: HEK293 cells stably expressing hAC (HEK293-hAC) were generated in our laboratory using a protocol, as previously described.[30] Briefly, hAC (variant 1 coding sequence, NM_177924) cDNA was purchased from Open Biosystems (clone ID 3923451) and subcloned in the mammalian expression vector pCDNA3.1, containing the neomycin resistance gene. HEK293 cells were transfected with the hAC-pCDNA3.1 construct using a JetPEI reagent (Polyplus Transfection, Illkirch-Graffenstaden, France) and following the manufacturer’s instructions. A stable cell line was generated by selection with G418 (1 mg/mL), and cell clones were derived by limited dilution plating. HEK293-hAC were grown in Dulbecco’s modified Eagle medium (DMEM) containing 10% fetal bovine serum (FBS), 1% glutamine, 1 mM sodium pyruvate, and 500 μg/mL G418. Cells were harvested and pellets were stored at −80 °C until lysosomal-enriched lysate preparation. Cells were suspended in 20 mM Tris HCl (pH 7.5) with 0.32 M sucrose, sonicated, and centrifuged at 800 × g for 30 min at 4 °C. Supernatants were then centrifuged at 12 000 × g for 30 min at 4 °C. Pellets were re-suspended in PBS (pH 7.4) and subjected to three freeze–thaw cycles at −80 °C. The suspension was finally centrifuged at 105 000 × g for 1 h at 4 °C, and protein concentration was measured in the supernatant with a bicinchoninic acid based protein assay. This hAC-enriched preparation allowed us to further optimize the enzymatic assay and to use small amounts of lysate (2 μg/well) at the 5 μM substrate (Rbm14-12) around its KM (KM = 5.0 μM).
The assay was performed in Optiplate 96-wells black plates, with each reaction well containing a mixture of 25 mM NaOAc buffer (pH 4.5) and a fixed amount of protein (2 μg) in a volume of 85 μL. After 10 min of pre-incubation with the test compounds (diluted 20× from DMSO stock solutions at different concentrations), the fluorogenic probe was added (diluted 40× from EtOH stock solution, final concentration 5 μM). After 3 h incubation at 37 °C, reactions were stopped with 50 μL of MeOH and 100 μL of a 2.5 mg/mL NaIO4 fresh solution in 100 mM glycine/NaOH buffer (pH 10.6). The plates were further incubated for 2 h at 37 °C in the dark and fluorescence intensities were measured at excitation/emission wavelengths of 355/460 nm. Negative control samples consisted of the same incubation mixture in the absence of protein-enriched extracts. Data were plotted as a function of compound concentrations. IC50 values were calculated by nonlinear regression analysis using GraphPad Prism 5 (GraphPad Software Inc., CA, USA) applying a standard slope curve fitting. The reported IC50 values are the mean of at least three independent experiments performed in three technical replicates.

hAC inhibition, result in words	SMILES
not active up to 10 μM	CCC(C)NC(=O)n1cc(-c2ccccc2)oc1=O (racemic) [Compound 12f, (±) 2-Oxo-5-phenyl-N-s-butyl-oxazole-3-carboxamide]
complete loss in potency	CC(C)CNC(=O)n1cc(-c2ccc(F)cc2C2CCN(C)CC2)oc1=O [Compound 32c, 5-[4-Fluoro-2-(1-methyl-4-piperidyl)phenyl]-N-isobutyl-2-oxo-oxazole-3-carboxamide Hydrochloride]
complete loss in potency	CC(C)CNC(=O)n1cc(-c2ccc(F)c(C3CCN(C)CC3)c2)oc1=O [Compound 25f, 5-[4-Fluoro-3-(1-methyl-4-piperidyl)phenyl]-N-isobutyl-2-oxo-oxazole-3-carboxamide]
complete loss in potency	COCCCNC(=O)n1cc(-c2ccccc2)oc1=O [Compound 12d, N-(3-Methoxypropyl)-2-oxo-5-phenyl-oxazole-3-carboxamide]

Same assay, conditions: fluorogenic substrate Rbm14-12 5 μM, pH 4.5; mean of at least three experiments

hAC IC50 (μM)±SD	SMILES
submicromolar	O=C(NCCCCc1ccccc1)n1cc(-c2ccc(F)cc2)oc1=O [Compound 12j, 5-(4-Fluorophenyl)-2-oxo-N-(4-phenylbutyl)oxazole-3-carboxamide]

Same assay, conditions: fluorogenic substrate Rbm14-12 5 μM, pH 4.5; mean of at least three experiments; read-out: hAC IC50 (μM)±SD

IC50 [µM]	SMILES
0.007 ± 0.001	O=C(NCCCCc1ccccc1)n1c(-c2ccccc2)coc1=O [Compound 8a, 2-Oxo-4-phenyl-N-(4-phenylbutyl)oxazole-3-carboxamide]

Same assay, conditions: supplementary CSV

hAC, IC50 (micromicrolar)	SMILES
not active up to 10 micromolar	CCC(C)NC(=O)n1cc(-c2ccccc2)oc1=O (racemic) [Compound 12f, (±) 2-Oxo-5-phenyl-N-s-butyl-oxazole-3-carboxamide]
not active up to 10 micromolar	O=C(NCCCCc1ccccc1)N1C[C@@H](c2ccccc2)OC1=O [Compound 18b, (5R)-(+)-2-Oxo-5-phenyl-N-(4-phenylbutyl)oxazolidine-3-carboxamide]
not active up to 10 micromolar	O=C(CCCCCc1ccccc1)n1cc(-c2ccccc2)oc1=O [Compound 13c, 5-Phenyl-3-(6-phenylhexanoyl)oxazol-2-one]
not active up to 10 micromolar	O=C(Nc1ccccc1)n1cc(-c2ccccc2)oc1=O [Compound 12g, 2-Oxo-N,5-diphenyl-oxazole-3-carboxamide]
not active up to 10 micromolar	CN(CCCCc1ccccc1)C(=O)n1cc(-c2ccccc2)oc1=O [Compound 13a, N-Methyl-2-oxo-5-phenyl-N-(4-phenylbutyl)oxazole-3-carboxamide]
not active up to 10 micromolar	CC(C)CNC(=O)n1cc(-c2ccc(F)cc2C2CCN(C)CC2)oc1=O [Compound 32c, 5-[4-Fluoro-2-(1-methyl-4-piperidyl)phenyl]-N-isobutyl-2-oxo-oxazole-3-carboxamide Hydrochloride]
not active up to 10 micromolar	O=C(NCCCCc1ccccc1)N1C(=O)OC[C@@H]1c1ccccc1 [Compound 15a, (4S)-(+)-2-Oxo-4-phenyl-N-(4-phenylbutyl)oxazolidine-3-carboxamide]
not active up to 10 micromolar	O=c1[nH]cc(-c2ccccc2)o1 [Compound 11a, 5-Phenyl-3H-oxazol-2-one]
not active up to 10 micromolar	CC(C)CNC(=O)n1cc(-c2ccc(F)c(C3CCN(C)CC3)c2)oc1=O [Compound 25f, 5-[4-Fluoro-3-(1-methyl-4-piperidyl)phenyl]-N-isobutyl-2-oxo-oxazole-3-carboxamide]
not active up to 10 micromolar	COCCCNC(=O)n1cc(-c2ccccc2)oc1=O [Compound 12d, N-(3-Methoxypropyl)-2-oxo-5-phenyl-oxazole-3-carboxamide]
not active up to 10 micromolar	O=C(NCCCCc1ccccc1)N1C[C@H](c2ccccc2)OC1=O [Compound 18a, (5S)-(−)-2-Oxo-5-phenyl-N-(4-phenylbutyl)oxazolidine-3-carboxamide]
not active up to 10 micromolar	O=C(NCCCCc1ccccc1)N1C(=O)OC[C@H]1c1ccccc1 [Compound 15b, (4R)-(−)-2-Oxo-4-phenyl-N-(4-phenylbutyl)oxazolidine-3-carboxamide]
not active up to 10 micromolar	O=C(OCCCCc1ccccc1)n1cc(-c2ccccc2)oc1=O [Compound 13b, 4-Phenylbutyl-2-oxo-5-phenyl-oxazole-3-carboxylate]
not active up to 10 micromolar	CN1CCC(c2cc(F)ccc2-c2c[nH]c(=O)o2)CC1 [Compound 31c, 5-[4-Fluoro-2-(1-methyl-4-piperidyl)phenyl]-3H-oxazol-2-one]

From article PMC7770833, “Design, Synthesis, and Biological Evaluation of a Series of Oxazolone Carboxamides as a Novel Class of Acid Ceramidase Inhibitors” (Journal of Medicinal Chemistry, 2020)
